This is an account of results in patent publication US10322136B2, “Composition for inhibiting growth or proliferation of chronic myelogenous leukemia cancer stem cells, and screening method therefor” (HIROSHIMA UNIVERSITY, priority 2015, dated 2019).

Data set [1] deals with T1, Slc15A2 transporter (Mus musculus, UniProt Q9ES07).
T1 construct: endogenous in cells; host or cells: primary mouse normal KLS+ and CML KLS+ haematopoietic cells
T1 sequence (Q9ES07 1-729): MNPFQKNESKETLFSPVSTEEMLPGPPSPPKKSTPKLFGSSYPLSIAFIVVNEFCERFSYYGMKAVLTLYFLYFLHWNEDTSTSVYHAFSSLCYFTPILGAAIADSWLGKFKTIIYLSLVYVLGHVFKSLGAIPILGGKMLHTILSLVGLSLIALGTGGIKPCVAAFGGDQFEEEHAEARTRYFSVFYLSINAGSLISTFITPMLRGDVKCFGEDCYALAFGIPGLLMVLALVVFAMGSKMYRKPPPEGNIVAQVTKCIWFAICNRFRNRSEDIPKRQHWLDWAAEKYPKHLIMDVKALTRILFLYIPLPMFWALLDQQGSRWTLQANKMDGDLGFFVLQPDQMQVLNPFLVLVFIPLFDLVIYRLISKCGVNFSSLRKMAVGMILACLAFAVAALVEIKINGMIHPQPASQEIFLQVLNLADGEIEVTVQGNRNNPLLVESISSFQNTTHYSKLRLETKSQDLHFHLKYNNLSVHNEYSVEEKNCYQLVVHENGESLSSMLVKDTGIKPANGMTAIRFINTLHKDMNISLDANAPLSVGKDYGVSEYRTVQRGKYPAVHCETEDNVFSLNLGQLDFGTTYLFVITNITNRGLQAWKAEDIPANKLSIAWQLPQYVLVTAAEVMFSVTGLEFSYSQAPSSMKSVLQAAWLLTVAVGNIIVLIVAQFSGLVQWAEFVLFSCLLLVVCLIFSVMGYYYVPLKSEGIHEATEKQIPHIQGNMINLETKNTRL
The data set can be described thus: Slc15A2 transporter activity by [3H]GlySar uptake. Format: cell-based. Particulars: in the presence of 100 μM cefadroxil; pH 6.0; 60 or 120 min. The procedure:
6. Analysis of Slc15A2 Transporter Activity by [3H]GlySar Uptake
Slc15A2 transporter activity was determined using a well-established assay measuring [3H]GlySar uptake by cells suspended in an acidic transport medium (pH 6.0). Briefly, normal KLS^+ cells or CML KLS^+ cells (1×10^5) were suspended in a transport medium (125 mM NaCl, 4.8 mM KCl, 5.6 mM D-glucose, 1.2 mM CaCl2-2H2O4, 1.2 mM KH2PO4, 1.2 mM MgSO4-7H2O and 25 mM MES, pH 6.0) in the absence or presence of 100 μM cefadroxil (Sigma-Aldrich). To initiate the transporter reaction, [3H]GlySar (Moravek Biochemicals, Brea, Calif.) was added to the cell suspension. After 60 or 120 min, the radioactivity of [3H]GlySar internalized by cells was measured using a liquid scintillation counter.

The subject of data set [2] is CML-KLS+ cells. The data set can be described thus: Metabolomic analysis of dipeptides in KLS+ cells from treated CML-affected mice. Particulars: cefadroxil 36 mg/kg/day oral gavage for 30 days. Format: in vivo, mouse. The protocol:
To detect inhibition of dipeptide uptake in vivo, immature KLS^+ cells were isolated from tet-inducible CML-affected (Tal1-tTA^+TRE-BCR-ABL1^+) mice (n=4 mice in each of the three independent experiments), and normal healthy littermate (Tal1-tTA^+) mice (n=6 mice in each of the two independent experiments) that had received vehicle or cefadroxil (36 mgKg^−1day^−1) by oral gavage for 30 days. […] In all cases, isolated cell pellets were frozen at −80° C. immediately after obtaining. Metabolomic profiling was performed by Metabolon Inc. (Durham, N.C.) using ultrahigh-performance liquid chromatography/mass spectroscopy (UPLC/MS/MS) and gas chromatography/MS (GC/MS). Data were compiled using the Metabolon LIMS (Laboratory Information Management System). The UPLC/MS/MS portion of the platform was based on a Waters Acquity UPLC (Waters) and a Q-Exactive high-resolution/accurate mass spectrometer (Thermo Scientific) interfaced with a heated electrospray ionization (HESI-II) source and Orbitrap mass analyzer. GC/MS was performed by a Trace DSQ fast-scanning single-quadrupole mass spectrometer using electron impact ionization (Thermo-Finnigan).

The test system of data set [3] is normal HSCs. Nature of the data set: Colony-forming assay, LT-normal HSCs on OP-9 stromal cells. The data set is classed as cell-based, mouse. Particulars: 5 μM, 5 days, hypoxic (3% O2). The procedure:
LT-CML stem cells or LT-normal HSCs (1×10^3/plate) were co-cultured on OP-9 stromal cells for 5 days in the presence of either vehicle (control) or a dipeptide transporter inhibitor cefadroxil (5 μM). Cells were harvested, washed with PBS, and plated in semi-solid methylcellulose medium containing SCF, IL-3, IL-6 and erythropoietin (Methocult GF M3434; Stem Cell Technologies). After growth for 7 days in a humidified atmosphere containing 5% CO2 at 37° C., colony numbers were counted under a light microscope.

The subject of data set [4] is S6 ribosomal protein. The data set can be described thus: Duolink in situ PLA, S6 ribosomal protein phosphorylation in LT-CML cancer stem cells. Format: cell-based, mouse. Particulars: 30 min; GlySar or cefadroxil 5 μM; rapamycin 100 nM. The protocol:
(§1) To examine phosphorylation of Smad2, Smad3, p38MAPK, AMPK, and S6 ribosomal protein, and Foxo3a-Smad2 and Foxo3a-Smad3 interactions, Duolink® in situ PLA assay (Olink Bioscience) was used. LT-CML stem cells, ST-CML stem cells, CD48^+, MPP, and KLS^− CML cells that were freshly isolated from CML-affected mice, and LT-normal HSCs that were freshly isolated from healthy control littermates, were immediately fixed with 4% paraformaldehyde for 30 min.
For in vitro inhibitor experiments, LT-CML stem cells were incubated in 3% O2 at 37° C. for 30 min with vehicle (control; artificial gastric fluid solution (900 ml ddH2O containing 2.0 g of NaCl, 7 ml of conc. HCl and 3.2 g of pepsin)), 5 μM Ly364947 (TGF-β type I receptor kinase Alk5 inhibitor; Merck), 5 μM SB203580 (p38MAPK inhibitor; LC Laboratories), 5 μM GlySar (dipeptide transporter inhibitor; Sigma-Aldrich), 5 μM cefadroxil (dipeptide transporter inhibitor; Sigma-Aldrich), or 100 nM rapamycin (mTORC1 inhibitor; Cell Signaling Technologies). […]
The proximate binding of these antibodies was then detected using Duolink® in situ PLA system which employs a set of two secondary antibodies in which one is conjugated to a minus strand PLA probe and the other is conjugated to a plus strand PLA probe. […] The number of fluorescent foci per single cell was quantified using Duolink®Image Tool software (Olink Bioscience).

Data set [5] has as its system Raptor-Ser792. The data set can be described thus: Raptor-Ser792 phosphorylation in LT-CML cancer stem cells. Particulars: LT-CML cancer stem cells in vitro. Format: cell-based, mouse.
Data set [6] deals with Smad3 Ser208. The data set can be described thus: Duolink in situ PLA, Smad3 Ser208 phosphorylation in LT-CML cancer stem cells. Format: cell-based, mouse. The conditions noted are these: 30 min; GlySar or cefadroxil 5 μM; rapamycin 100 nM. The protocol: as §1
For in vitro inhibitor experiments, LT-CML stem cells were incubated in 3% O2 at 37° C. for 30 min with vehicle (control; artificial gastric fluid solution (900 ml ddH2O containing 2.0 g of NaCl, 7 ml of conc. HCl and 3.2 g of pepsin)), 5 μM Ly364947 (TGF-β type I receptor kinase Alk5 inhibitor; Merck), 5 μM SB203580 (p38MAPK inhibitor; LC Laboratories), 5 μM GlySar (dipeptide transporter inhibitor; Sigma-Aldrich), 5 μM cefadroxil (dipeptide transporter inhibitor; Sigma-Aldrich), or 100 nM rapamycin (mTORC1 inhibitor; Cell Signaling Technologies). Treated cells were fixed with 4% paraformaldehyde for 30 min, and treated with 0.25% Triton X-100 for 15 min, washed and blocked by incubation in 5% FBS in TBS for 1 hr.
The proximate binding of these antibodies was then detected using Duolink® in situ PLA system which employs a set of two secondary antibodies in which one is conjugated to a minus strand PLA probe and the other is conjugated to a plus strand PLA probe. Nuclei were stained with DNA marker DAPI (Sigma). Stained slides were mounted using Fluoromount Plus (Diagnostic Biosystems) and fluorescent images were acquired by confocal microscopy (FV10i, Olympus) and Photoshop software (Adobe). The number of fluorescent foci per single cell was quantified using Duolink®Image Tool software (Olink Bioscience).

Data set [7] has as its system BCR-ABL1+ disease. Nature of the data set: Survival and disease recurrence of BCR-ABL1 CML-affected mice. Format: in vivo, mouse. Particulars: oral gavage days 8 to 90 post transplantation; IM 100 mg/kg/day; cefadroxil 36 mg/kg/day; versus vehicle.
Text: BCR-ABL1 transduction/transplantation-based CML model (BCR-ABL1 CML mice) was also used. Briefly, normal KLS^+ cells (4-5×10^3 cells per recipient mouse) were transduced with the human BCR-ABL1-ires GFP retrovirus and transplanted into irradiated (9 Gy) recipient C57BL/6 mice (Sankyo-Lab Service, Tsukuba, Japan).
Treatment was delivered by oral gavage on days 8 to 90 post transplantation. To examine the effect of single administration of Ly2228820, BCR-ABL1-CML-affected mice received vehicle, or Ly2228820 (2.5 mg kg^−1 every three days; Axon Medchem) in vehicle, by oral gavage on days 8 to 60 days post transplantation.

As for `CC1=C(C(=O)O)N2C(=O)[C@@H](NC(=O)[C@H](N)c3ccc(O)cc3)[C@H]2SC1` [cefadroxil], the “[3H]GlySar uptake by CML-KLS+ cells” value in data set [1] was “markedly decreased”. Also, in data set [2], the “levels of several dipeptides in immature CML-KLS+ cells” value is recorded as “decreased”. In data set [3], the “colony-forming capacity of normal HSCs” value is listed as “maintained normal levels”. In addition, the “phosphorylation of S6” value in data set [4] is “decreased phosphorylation”. The Raptor-Ser792 phosphorylation entry in data set [5] was “did not promote”. For the same compound, the “Smad3 Ser208 phosphorylation” value in data set [6] is listed as “blocked”. The “BCR-ABL1+ disease onset / development” value in data set [7] is reported as “appeared to promote disease development”.
